Results taken from US20120088279A1, “ALGAL LIPID PRODUCTION” (Phycal, Inc., priority 2009, published 2012).

Test system: Nannochloropsis sp.
Test: Pulsed chlorate stress with non-destructive lipid extraction of algae culture
Type: cell-based
Details: chlorate stress 18 hours under nutrient-replete conditions, repeated cycles, compared to identical system with the cycle carried out only once
From the text: Nannochloropsis sp., a unicellular alga capable of producing large amounts of triacylglycerides, can be grown in f/2 medium with 1/3rd strength Instant Ocean under indoor lighting in 800 L raceway systems either kept moving with a submerged pump or paddlewheel. The algae are first grown under normal, nutrient replete conditions. Upon achieving a set concentration in culture sufficient for economical extraction (e.g., 1.0 g/L), an amount of chlorate sufficient to block nitrogen uptake by the Nannochloropsis is added. The Nannochloropsis culture is then allowed to grow under these conditions of nutrient assimilation inhibition for 18 hours. Twenty five percent of the algae culture is then removed and subjected to a non-destructive extraction process, while ammonia is added to the remaining in an amount sufficient to renew normal nitrogen uptake.
The removed portion of the culture is then mixed with dodecane or undecane or a mixture of the two for 15 minutes, during which sonication is applied for 2 seconds at 40 kHz. The mixture is partitioned with the upper solvent level removed by decanting, and the lower aqueous layer is then returned to the original algae culture, in which non-stressed growth has resumed as a result of the addition of ammonia. […]

[O-][Cl+2]([O-])O [chlorate]
levels of lipid obtained during subsequent cycles: higher levels of lipid
